The record followed here is patent publication US10780090B2, “Heteroaryl compounds useful as inhibitors of SUMO activating enzyme” (Millennium Pharmaceuticals, Inc., priority 2014, dated 2020).

The target of this assay is recombinant human SAE enzyme (Homo sapiens (Human), UniProt Q9UBT2). The assay can be described thus: SAE HTRF enzyme assay. Format: biochemical. The settings on record: for inhibition at 0.111 µM / Percent Inhibition: Concentration 0.111 μM; for inhibition at 0.111 µM: read-out: Percent Inhibition; for IC50: class symbols A/B/C. In short, it runs like this: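 Human SAE (0.11 nM) with 0.5 μM ATP, 0.125 μM Sumo-Flag and 0.01 μM Ubc9-GST in HEPES pH 7.5, 5 mM MgCl2, 250 μM GSH; 105 min at 24 °C. Stopped with EDTA; HTRF read after 2 h with Eu-anti-Flag and APC-anti-GST. Percent inhibition or IC50 reported.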
Sequence of recombinant human SAE enzyme (Q9UBT2 whole entry): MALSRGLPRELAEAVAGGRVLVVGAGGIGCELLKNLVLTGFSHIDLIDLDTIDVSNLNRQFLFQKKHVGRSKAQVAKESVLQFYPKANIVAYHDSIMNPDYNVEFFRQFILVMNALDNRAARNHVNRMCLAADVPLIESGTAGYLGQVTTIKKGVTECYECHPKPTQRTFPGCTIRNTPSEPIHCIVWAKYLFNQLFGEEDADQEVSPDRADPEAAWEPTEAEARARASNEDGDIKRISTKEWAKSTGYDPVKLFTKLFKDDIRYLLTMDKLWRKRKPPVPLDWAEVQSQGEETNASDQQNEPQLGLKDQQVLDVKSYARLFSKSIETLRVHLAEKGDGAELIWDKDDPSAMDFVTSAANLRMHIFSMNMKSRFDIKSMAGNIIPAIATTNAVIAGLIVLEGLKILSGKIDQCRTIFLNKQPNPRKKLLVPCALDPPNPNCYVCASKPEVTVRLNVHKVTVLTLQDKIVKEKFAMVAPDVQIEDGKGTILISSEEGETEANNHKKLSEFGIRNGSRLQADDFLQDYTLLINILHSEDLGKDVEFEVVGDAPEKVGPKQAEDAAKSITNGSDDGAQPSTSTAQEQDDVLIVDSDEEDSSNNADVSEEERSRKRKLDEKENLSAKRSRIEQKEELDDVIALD
Sequence of recombinant human SAE enzyme (Q9UBE0 whole entry partner): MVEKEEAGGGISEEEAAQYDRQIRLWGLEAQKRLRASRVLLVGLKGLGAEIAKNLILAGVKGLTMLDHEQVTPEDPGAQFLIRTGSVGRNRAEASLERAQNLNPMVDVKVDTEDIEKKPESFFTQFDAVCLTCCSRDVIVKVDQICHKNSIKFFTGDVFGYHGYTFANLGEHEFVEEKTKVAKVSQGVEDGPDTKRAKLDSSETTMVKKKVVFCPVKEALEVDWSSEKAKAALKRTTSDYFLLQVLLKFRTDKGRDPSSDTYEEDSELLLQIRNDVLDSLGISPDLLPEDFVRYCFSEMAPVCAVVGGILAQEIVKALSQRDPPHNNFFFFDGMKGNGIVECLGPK

`Cc1cccc(Cc2cc(C(=O)c3cncnc3N[C@@H]3C[C@H](COS(N)(=O)=O)[C@@H](O)[C@@H]3F)oc2C)c1` [I-65, [(1R,2R,3R,4R)-3-fluoro-2-hydroxy-4-({5-[5-methyl-4-(3-methylbenzyl)-2-furoyl]pyrimidin-4-yl}amino)cyclopentyl]methyl sulfamate]: the inhibition at 0.111 µM is 99% and the IC50 is under 10 nM.

In the case of `NS(=O)(=O)OC[C@H]1C[C@@H](Nc2ncncc2C(=O)c2cc(Cc3ccc(Cl)o3)cs2)C[C@@H]1O` [I-66, [(1R,2S,4R)-4-{[5-({4-[(5-chloro-2-furyl)methyl]-2-thienyl}carbonyl)pyrimidin-4-yl]amino}-2-hydroxycyclopentyl]methyl sulfamate], the inhibition at 0.111 µM was 98% and the IC50 was under 10 nM.

For `C#Cc1cccc(Cc2csc(C(=O)c3cncnc3N[C@@H]3C[C@H](COS(N)(=O)=O)[C@@H](O)C3)c2)c1` [I-70, {(1R,2S,4R)-4-[(5-{[4-(3-Ethynylbenzyl)-2-thenyl]carbonyl}pyrimidin-4-yl)amino-2-hydroxycyclopentyl}methyl sulfamate], the “Percent Inhibition” value was determined as 98 and the IC50 is under 10 nM.

Take `NS(=O)(=O)OC[C@H]1C[C@@H](Nc2ncncc2C(=O)c2cc(Cc3cccc(Cl)n3)cs2)C[C@@H]1O` [I-71, [(1R,2S,4R)-4-{[5-({4-[(6-chloropyridin-2-yl)methyl]-2-thienyl}carbonyl)pyrimidin-4-yl]amino}-2-hydroxycyclopentyl]methyl sulfamate]: the inhibition at 0.111 µM was 98%.

Consider `NS(=O)(=O)OC[C@H]1C[C@@H](Nc2ncncc2C(=O)c2cc(Cc3cccc(Cl)c3)c(Cl)o2)C[C@@H]1O` [I-72, [(1R,2S,4R)-4-({5-[5-chloro-4-(3-chlorobenzyl)-2-furoyl]pyrimidin-4-yl}amino)-2-hydroxycyclopentyl]methyl sulfamate], for which the inhibition at 0.111 µM stood at 98% and the concentration for half-maximal inhibition (IC50) was under 10 nM.

Take `Cc1cnn(Cc2csc(C(=O)c3cncnc3N[C@@H]3C[C@H](COS(N)(=O)=O)[C@@H](O)C3)c2)c1` [I-74, [(1R,2S,4R)-2-hydroxy-4-{[5-({4-[(4-methyl-1H-pyrazol-1-yl)methyl]-2-thienyl}carbonyl)pyrimidin-4-yl]amino}cyclopentyl]methyl sulfamate]: the inhibition at 0.111 µM came out at 98% and the IC50 was under 10 nM.

On to `Cc1oc(C(=O)c2cncnc2N[C@@H]2C[C@H](COS(N)(=O)=O)[C@@H](O)[C@@H]2F)cc1Cc1cccc(Cl)c1` [I-75, [(1R,2R,3R,4R)-4-({5-[4-(3-chlorobenzyl)-5-methyl-2-furoyl]pyrimidin-4-yl}amino)-3-fluoro-2-hydroxycyclopentyl]methyl sulfamate], for which the inhibition at 0.111 µM is 98% and the IC50 is under 10 nM.

For the compound `NS(=O)(=O)OC[C@H]1C[C@@H](Nc2ncncc2C(=O)c2cc(Cc3cccc(Br)c3)c(Cl)s2)[C@H](O)[C@@H]1O` [I-76, {(1R,2R,3S,4R)-4-[(5-{[4-(3-bromobenzyl)-5-chloro-2-thienyl]carbonyl}pyrimidin-4-yl)amino]-2,3-dihydroxycyclopentyl}methyl sulfamate], the inhibition at 0.111 µM amounted to 99% and the IC50 was under 10 nM.

With `CN(C)Cc1sc(C(=O)c2cncnc2N[C@@H]2C[C@H](COS(N)(=O)=O)[C@@H](O)C2)cc1Cc1cccc(Cl)c1` [I-77, [(1R,2S,4R)-4-{[5-({4-(3-chlorobenzyl)-5-[(dimethylamino)methyl]-2-thienyl}carbonyl)pyrimidin-4-yl]amino}-2-hydroxycyclopentyl]methyl sulfamate], the inhibition at 0.111 µM came out at 98% and the IC50 is under 10 nM.

Take `Cc1cnn(Cc2cc(C(=O)c3cncnc3N[C@@H]3C[C@H](COS(N)(=O)=O)[C@@H](O)C3)sc2C)c1` [I-78, [(1R,2S,4R)-2-hydroxy-4-{[5-({5-methyl-4-[(4-methyl-1H-pyrazol-1-yl)methyl]-2-thienyl}carbonyl)pyrimidin-4-yl]amino}cyclopentyl]methyl sulfamate]: the inhibition at 0.111 µM came out at 98%.

As to `NS(=O)(=O)OC[C@H]1C[C@@H](Nc2ncncc2C(=O)c2cc(Cc3cccc(Cl)c3)co2)C[C@@H]1O` [I-79, [(1R,2S,4R)-4-({5-[4-(3-chlorobenzyl)-2-furoyl]pyrimidin-4-yl}amino)-2-hydroxycyclopentyl]methyl sulfamate], the inhibition at 0.111 µM is 97%.

As for `COc1ccccc1OCc1csc(C(=O)c2cncnc2N[C@@H]2C[C@H](COS(N)(=O)=O)[C@@H](O)C2)c1` [I-80, [(1R,2S,4R)-2-hydroxy-4-{[5-({4-[(2-methoxyphenoxy)methyl]-2-thienyl}carbonyl)pyrimidin-4-yl]amino}cyclopentyl]methyl sulfamate], the inhibition at 0.111 µM amounted to 98% and the IC50 was under 10 nM.

`CSc1cccc(Cc2csc(C(=O)c3cncnc3N[C@@H]3C[C@H](COS(N)(=O)=O)[C@@H](O)C3)c2)c1` [I-81, [(1R,2S,4R)-2-hydroxy-4-{[5-({4-[3-(methylsulfanyl)benzyl]-2-thienyl}carbonyl)pyrimidin-4-yl]amino}cyclopentyl]methyl sulfamate]: the inhibition at 0.111 µM turned out to be 98% and the IC50 is under 10 nM.

With `NS(=O)(=O)OC[C@H]1C[C@@H](Nc2ncncc2C(=O)c2ccc(Cc3cccc(Br)c3)o2)C[C@@H]1O` [I-82, [(1R,2S,4R)-4-({5-[5-(3-bromobenzyl)-2-furoyl]pyrimidin-4-yl}amino)-2-hydroxycyclopentyl]methyl sulfamate], the inhibition at 0.111 µM was determined as 99%.

Consider `NS(=O)(=O)OC[C@H]1C[C@@H](Nc2ncncc2C(=O)c2cc(CN3CCc4ccc(Cl)cc43)cs2)C[C@@H]1O` [I-83, [(1R,2S,4R)-4-{[5-({4-[(6-chloro-2,3-dihydro-1H-indol-1-yl)methyl]-2-thienyl}carbonyl)pyrimidin-4-yl]amino}-2-hydroxycyclopentyl]methyl sulfamate], for which the inhibition at 0.111 µM stood at 98% and the IC50 is under 10 nM.

Turning to `NS(=O)(=O)OC[C@H]1C[C@@H](Nc2ncncc2C(=O)c2cc(Cc3cccc(Cl)c3F)cs2)C[C@@H]1O` [I-84, {(1R,2S,4R)-4-[(5-{[4-(3-chloro-2-fluorobenzyl)-2-thienyl]carbonyl}pyrimidin-4-yl)amino]-2-hydroxycyclopentyl}methyl sulfamate], the inhibition at 0.111 µM was 98% and the IC50 is under 10 nM.

Turning to `NS(=O)(=O)OC[C@H]1C[C@@H](Nc2ncncc2C(=O)c2ccc(Cc3ccccc3)o2)[C@H](O)[C@@H]1O` [I-87, [(1R,2R,3S,4R)-4-{[5-(5-benzyl-2-furoyl)pyrimidin-4-yl]amino}-2,3-dihydroxycyclopentyl]methyl sulfamate], the inhibition at 0.111 µM came to 94%.

`NS(=O)(=O)OC[C@H]1C[C@@H](Nc2ncncc2C(=O)c2cc(Cc3ccccc3)cs2)C[C@@H]1O` [I-88, [(1R,2S,4R)-4-({5-[(4-benzyl-2-thienyl)carbonyl]pyrimidin-4-yl}amino)-2-hydroxycyclopentyl]methyl sulfamate]: the inhibition at 0.111 µM amounted to 98% and the IC50 was under 10 nM.

As for `NS(=O)(=O)OC[C@H]1C[C@@H](Nc2ncncc2C(=O)c2cc(Cc3cccc(Cl)c3)c(F)s2)C[C@@H]1O` [I-89, {(1R,2S,4R)-4-[(5-{[4-(3-chlorobenzyl)-5-fluoro-2-thienyl]carbonyl}pyrimidin-4-yl)amino]-2-hydroxycyclopentyl}methyl sulfamate], the inhibition at 0.111 µM amounted to 98% and the IC50 is under 10 nM.

On to `NS(=O)(=O)OC[C@H]1C[C@@H](Nc2ncncc2C(=O)c2cc(Cn3ccc4cccnc43)cs2)C[C@@H]1O` [I-92, {(1R,2S,4R)-2-hydroxy-4-[(5-{[4-(1H-pyrrolo[2,3-b]pyridin-1-ylmethyl)-2-thienyl]carbonyl}pyrimidin-4-yl)amino]cyclopentyl}methyl sulfamate], for which the inhibition at 0.111 µM amounted to 98% and the IC50 is under 10 nM.

Take `NS(=O)(=O)OC[C@H]1C[C@@H](Nc2ncncc2C(=O)c2ccc(Cc3cccc(Cl)c3)o2)C[C@@H]1O` [I-93, [(1R,2S,4R)-4-({5-[5-(3-chlorobenzyl)-2-furoyl]pyrimidin-4-yl}amino)-2-hydroxycyclopentyl]methyl sulfamate]: the inhibition at 0.111 µM turned out to be 98%.

In the case of `NS(=O)(=O)OC[C@H]1C[C@@H](Nc2ncncc2C(=O)c2cc([S@+]([O-])c3cccc(Cl)c3)c(Cl)s2)C[C@@H]1O` [I-94, [(1R,2S,4R)-4-({[5-({5-Chloro-4-[(R)-(3-chlorophenyl)sulfinyl]-2-thienyl}carbonyl)pyrimidin-4-yl]amino}-2-hydroxycyclopentyl]methyl sulfamate and [(1R,2S,4R)-4-{[5-({5-chloro-4-[(S)-(3-chlorophenyl)sulfinyl]-2-thienyl}carbonyl)pyrimidin-4-yl]amino}-2-hydroxycyclopentyl]methyl sulfamate], the “Percent Inhibition” value came out at 98 and the IC50 was under 10 nM.

Consider `NS(=O)(=O)OC[C@H]1C[C@@H](Nc2ncncc2C(=O)c2cc(Cc3ccccc3)c(Cl)s2)C[C@@H]1O` [I-96, [(1R,2S,4R)-4-({5-[(4-benzyl-5-chloro-2-thienyl)carbonyl]pyrimidin-4-yl}amino)-2-hydroxycyclopentyl]methyl sulfamate], for which the inhibition at 0.111 µM was found to be 97%.

Consider `NS(=O)(=O)OC[C@H]1C[C@@H](Nc2ncncc2C(=O)c2cc(Cc3cccc(F)c3)cs2)C[C@@H]1O` [I-97, {(1R,2S,4R)-4-[(5-{[4-(3-fluorobenzyl)-2-thienyl]carbonyl}pyrimidin-4-yl)amino]-2-hydroxycyclopentyl}methyl sulfamate], for which the inhibition at 0.111 µM came to 97%.

On to `NS(=O)(=O)OC[C@H]1C[C@@H](Nc2ncncc2C(=O)c2cc(COc3ccccc3Br)cs2)C[C@@H]1O` [I-98, [(1R,2S,4R)-4-{[5-({4-[(2-bromophenoxy)methyl]-2-thienyl}carbonyl)pyrimidin-4-yl]amino}-2-hydroxycyclopentyl]methyl sulfamate], for which the inhibition at 0.111 µM came to 97% and the IC50 is under 10 nM.
